The test system of series [1] is HCV NS5A replicon GT-1a. Briefly: HCV NS5A replicon anti-viral activity (EC50), dual-reporter Renilla luciferase, GT-1a. Format: cell-based. Particulars: for inhibitory activity compared with Ref-1(BMS-790052), Ref-2(GS5885), Ref-3 and Ref-4 (in words): comparison drawn from Table 2. From the text:
(§1) The autonomous replication level of HCV in liver cells in vitro is very low, and the only animal that can be infected by HCV is chimpanzee, therefore there is no appropriate animal model currently available for preclinical pharmacodynamic study. Some researchers have transplanted human liver tissue infected with HCV in vitro into immune deficient mice to establish an in vivo mice model, but these mice are hard to raise and the model is unstable and short of normal immunologic reaction. Moreover, the model has significant difference with the pathogenic process of hepatitis C, therefore, it has not been used for animal model to assess the action of anti-HCV medicine yet. The progress of the development of anti-viral drugs for the treatment of HCV infection had been very slow because the pathogenic mechanism and life cycle of HCV were unclear before 1999 due to the lack of cell culture system for effective multiplication of HCV. But researchers managed to achieve a breakthrough in 1999 after numerous attempts. An effective cell culture model-replicon system in which HCV is capable of autonomous replication in transfected human hepatic carcinoma cell line Huh-7 had been established in that year on the basis of subgenomic HCV RNA built with genetic engineering.
(§2) The above-mentioned cell culture model-replicon system which has been widely accepted in the industry is used in this invention for ex vivo experiments and subsequent assessment of drugs based on the experiment results.
(§3) The therapeutic effect of the compounds of this invention on HCV infection can be preliminarily assessed through the following preclinical in vitro inhibitory action test and can be further confirmed in clinical trials. Other methods used in the invention are also quite familiar to professionals in this field with ordinary technical knowledge. Method for testing the anti-viral activity(EC50) in HCV NS5A replicon system: • The viral replication level in infected cells was determined by testing Renilla luciferase with the newly established dual-reporter gene replicon system. There was a good linear relation between the expression level of the reporter gene and the HCV RNA replication level and viral protein expression level. The anti-viral activity was determined for 3 replicates in 3 replicate cells at five(5) 1:2 diluted concentration gradients, with 1 to 2 positive controls. The EC50 of the compounds was calculated in the end.
(§4) The compounds of the invention, or their stereoisomers, tautomers, esterified or amidated prodrugs, or pharmaceutically acceptable salts and mixtures have been subjected to test to determined their therapeutic effects in the treatment of HCV infection. […] Moreover, the results of 6a-6ep(Ia), 6fa-6gq(Ib) and reference compounds Ref-1(BMS-790052), Ref-2(GS5885), Ref-3 in HCV-NS5 inhibition test reveal that the cyclopentanyl/hexamethyleneamino radical containing linear polypeptide compounds 6a-6ep, 6fa-6gq and reference compounds Ref-1, Ref-2, Ref-3 have good HCV inhibitory results. […] The replicons GT-1a, GT-lb, GT-2a, GT-3a, GT-4a, GT-5a and GT-6a used for the test are routine replicons commercially available in this field. Table 1: HCV NS5A replicon inhibitory activity test results of compounds (6a-6gq) of the invention
Background: A replicon is a self-replicating genome or part of one, used to study replication in cells.

Series [2] relates to HCV NS5A replicon GT-lb. Put plainly: HCV NS5A replicon anti-viral activity (EC50), GT-1b. The class given is cell-based. Particulars: Hepatitis C virus, genotype 1a / genotype 6a, read-out: Inhibitory activity against various HCV-NS5A subtypes(EC50, GT-1a to GT-6a) GT-lb.
Excerpt: as §1, §2, §3, §4

Series [3] deals with HCV NS5A replicon GT-5a. Put plainly: HCV NS5A replicon anti-viral activity (EC50), GT-5a. Conditions: Hepatitis C virus, genotype 1a / genotype 5a / genotype 6a, read-out: Inhibitory activity against various HCV-NS5A subtypes(EC50, GT-1a to GT-6a) GT-5a. Format: cell-based.
Excerpt: as §1, §2, §3, §4

The test system of series [4] is HCV NS5A replicon GT-3a. Briefly: HCV NS5A replicon anti-viral activity (EC50), GT-3a. Format: cell-based. Particulars: Hepatitis C virus, genotype 1a / genotype 3a / genotype 6a, read-out: Inhibitory activity against various HCV-NS5A subtypes(EC50, GT-1a to GT-6a) GT-3a.
Excerpt: as §1, §2, §3, §4

For series [5], the system named is HCV NS5A replicon GT-4a. Put plainly: HCV NS5A replicon anti-viral activity (EC50), GT-4a. Particulars: Hepatitis C virus, genotype 1a / genotype 4a / genotype 6a, read-out: Inhibitory activity against various HCV-NS5A subtypes(EC50, GT-1a to GT-6a) GT-4a. Format: cell-based.
Excerpt: as §1, §2, §3, §4

Series [6] concerns HCV NS5A replicon GT-2a. Put plainly: HCV NS5A replicon anti-viral activity (EC50), GT-2a. The class given is cell-based. Conditions: Hepatitis C virus, genotype 1a / genotype 2a / genotype 6a; GT-2a replicon; read-out: Inhibitory activity against various HCV-NS5A subtypes(EC50, GT-1a to GT-6a) GT-2a.
Excerpt: as §1, §2, §3, §4

The test system of series [7] is HCV NS5A replicon GT-6a. Put plainly: HCV NS5A replicon anti-viral activity (EC50), GT-6a. The class given is cell-based. Conditions: Hepatitis C virus, genotype 1a / genotype 6a; GT-6a replicon; read-out: Inhibitory activity against various HCV-NS5A subtypes(EC50, GT-1a to GT-6a) GT-6a.
Excerpt: as §1, §2, §3, §4

Series [8] has as its system ICR mice. Put plainly: MTD screening test (acute toxicity study) in mice. Format: in vivo. Particulars: high dosage. The protocol: Method: ICR mice, 10 mice/group, 5 males and 5 females. A treatment group and a control group are set up for every drugs, respectively, mice in control group were administered 0.5%CMC-Na solution, i.e. the solvent of the drugs. The mice were fasted overnight but granted free access to water before the administration. Their body weight before the administration of drugs is in the range of 18.8∼24.1 g. The mice were administered the drugs by peroral lavage at the dosage of 40 mL/kg. The mice were closely observed 3 hours after the administration and twice a day afterwards for 7 days, one in the morning and one in the afternoon. At the end of the observation period, 2 mice (1 male and 1 female) were randomly selected from each treatment group and subjected to histopathological examination of part of their tissues and organs.
Two third of the novel heterocyclic compounds that have good HCV inhibiting activity (EC50: <0.05nM) after administration of the drugs by lavage at the dosage of 2000mg/kg yield a survival rate of 100%. […] Two third of the novel compounds that show high HCV inhibiting activity have very low overall toxicity (survive rate of mice after administration: 100%). It is believed that these compounds are generally nontoxic.

The mark [9] stands for this setting: Hepatitis C virus, GT1A, GT-1a replicon, read-out: NS5A Inhibitory Activity (EC50 of GT-1a subtype inhibition).
Setting [10] is: Hepatitis C virus, genotype 1a / genotype 6a, read-out: Inhibitory activity against various HCV-NS5A subtypes(EC50, GT-1a to GT-6a) GT-1a.

Molecules are shown by their SMILES. Like-named read-outs stand apart in the source and are kept apart here.

One may read the EC50 as the midpoint of the concentration-response curve.

For the compound `COC(=O)N[C@H](C(=O)N1CC=C[C@H]1c1ncc(-c2ccc(-c3ccc(-c4c[nH]c([C@@H]5CCCN5C(=O)[C@@H](NC(=O)OC)C(C)C)n4)cc3)cc2)[nH]1)C(C)C` [6ba], the EC50 in series [1] (setting [9]) is 0.001 to 0.999 nM; in series [1] (setting [10]), 0.039 nM; in series [2], 0.012 nM; in series [3] it was 0.023 nM; in series [4], 0.173 nM; in series [5] it was 0.01 nM. Besides, the values for the EC50 in series [6] and in series [7] were 0.016 nM and 0.221 nM, respectively.

`COC(=O)N[C@@H](C(=O)N1CC=C[C@H]1c1ncc(-c2ccc(-c3csc4c(-c5c[nH]c([C@@H]6CCCN6C(=O)[C@H](NC(=O)OC)c6ccccc6)n5)csc34)cc2)[nH]1)c1ccccc1` [6fm]: the half-maximal effective concentration (EC50) in series [1] (setting [9]) fell in the range of 0.001 to 0.999 nM. For the same compound, the “toxicity (in words)” value in series [8] was “low toxicity at high dosage”.

Consider `COC(=O)N[C@H](C(=O)N1CCC[C@H]1c1ncc(-c2ccc(-c3cc4sc(-c5cnc([C@@H]6C=CCN6C(=O)[C@H](NC(=O)OC)c6ccccc6)[nH]5)cc4s3)cc2)[nH]1)C(C)C` [6fg], for which the EC50 in series [1] (setting [9]) is 0.001 to 0.999 nM; in series [1] (setting [10]), 0.009 nM; in series [2], 0.013 nM; in series [3], 0.029 nM; in series [4], 0.024 nM; in series [5], 0.012 nM. The concentration for a half-maximal effect (EC50) in series [6] came to 0.008 nM; in series [7] it was 0.023 nM. For the same compound, in series [1], the “inhibitory activity compared with Ref-1(BMS-790052), Ref-2(GS5885), Ref-3 and Ref-4 (in words)” value is “significantly superior”.

Take `COC(=O)N[C@H](C(=O)N1CC=C[C@H]1c1ncc(-c2ccc(-c3cc4sc(-c5cnc([C@@H]6CCCN6C(=O)[C@H](NC(=O)OC)c6ccccc6)[nH]5)cc4s3)cc2)[nH]1)C(C)C` [6fd]: the 50% effective concentration (EC50) in series [1] (setting [9]) was 0.001 to 0.999 nM; in series [1] (setting [10]) it was 0.02 nM; in series [2], 0.005 nM; in series [3], 0.013 nM; in series [4] it was 0.026 nM; in series [5] it was 0.005 nM. Further, the EC50 in series [6] was determined as 0.007 nM; in series [7], 0.055 nM.

`COC(=O)N[C@H](C(=O)N1CCC[C@H]1c1nc(-c2ccc(-c3ccc(-c4cnc([C@@H]5C=CCN5C(=O)[C@H](NC(=O)OC)c5ccccc5)[nH]4)cc3)cc2)c[nH]1)C(C)C` [6dy]: the half-maximal effective concentration (EC50) in series [1] (setting [9]) is 0.001 to 0.999 nM; in series [1] (setting [10]), 0.011 nM; in series [2], 0.014 nM; in series [3], 0.023 nM; in series [4], 0.015 nM; in series [5] it was 0.008 nM. Further, the concentration giving a half-maximal response (EC50) in series [6] is 0.006 nM; in series [7] it was 0.024 nM. Also, the “inhibitory activity compared with Ref-1(BMS-790052), Ref-2(GS5885), Ref-3 and Ref-4 (in words)” value in series [1] was “significantly superior”. In series [8], the “toxicity (in words)” value was “low toxicity at high dosage”.

`COC(=O)N[C@H](C(=O)N1CCC[C@H]1c1nc(-c2ccc(-c3ccc(-c4cnc([C@@H]5CCCN5C(=O)[C@@H](NC(=O)OC)C(C)C)[nH]4)cc3)cc2)c[nH]1)C(C)C` [Ref-1, BMS-790052, reference compound]: the EC50 was 0.001 to 0.999 nM in series [1] (setting [9]); 0.052 nM in series [1] (setting [10]); 0.021 nM in series [2]; 0.036 nM in series [3]; 0.218 nM in series [4]; 0.011 nM in series [5]. For the same compound, the half-maximal effective concentration (EC50) was found to be 0.029 nM in series [6] and 0.118 nM in series [7].

For the compound `COC(=O)N[C@H](C(=O)N1CC=C[C@H]1c1nc2ccc(-c3csc4c(-c5ccc(-c6cnc([C@@H]7CCCN7C(=O)[C@H](NC(=O)OC)c7ccccc7)[nH]6)cc5)csc34)cc2[nH]1)C(C)C` [6fy], the EC50 in series [1] (setting [9]) was in the range of 0.001 to 0.999 nM.

For the compound `COC(=O)N[C@H](C(=O)N1CC=C[C@H]1c1ncc(-c2ccc(-c3csc4c(-c5c[nH]c([C@@H]6CCCN6C(=O)[C@@H](NC(=O)OC)C(C)C)n5)csc34)cc2)[nH]1)C(C)C` [6fj], in series [1] (setting [9]), the EC50 was 0.001 to 0.999 nM.

In the case of `COC(=O)N[C@H](C(=O)N1CCC[C@H]1c1nc2cc(-c3csc4c(-c5ccc(-c6c[nH]c([C@@H]7CCCN7C(=O)[C@H](NC(=O)OC)c7ccccc7)n6)cc5)csc34)ccc2[nH]1)C(C)C` [Ref-4, IDX-719, reference compound], the concentration for a half-maximal effect (EC50) in series [1] (GT-1a replicon, read-out: Inhibitory activity against various HCV-NS5A subtypes(EC50, GT-1a to GT-6a) GT-1a) was 0.022 nM; in series [1] (GT-1a replicon, read-out: NS5A Inhibitory Activity (EC50 of GT-1a subtype inhibition)), 0.001 to 0.999 nM.

For `COC(=O)N[C@H](C(=O)N1CC=C[C@H]1c1ncc(-c2cccc3c(-c4ccc(-c5cnc([C@@H]6CCCN6C(=O)[C@@H](NC(=O)OC)C(C)C)[nH]5)cc4)cccc23)[nH]1)C(C)C` [6eg], in series [1] (setting [9]), the concentration giving a half-maximal response (EC50) is 0.001 to 0.999 nM.

Regarding `COC(=O)N[C@H](C(=O)N1CCC[C@H]1c1ncc(-c2ccc(-c3ccc(-c4cnc([C@@H]5C=CCN5C(=O)[C@@H](NC(=O)OC)C5CCCC5)[nH]4)cc3)cc2)[nH]1)C(C)C` [6dh], the concentration for a half-maximal effect (EC50) in series [1] (setting [9]) was 0.001 to 0.999 nM.

Values taken from patent EP3153515A1, “COMPOUNDS FOR INHIBITING HEPATITIS C VIRUS, PHARMACEUTICAL COMPOSITIONS AND USES THEREOF” (priority 2014, dated 2015).
